The values below come from patent US6596284B1, “Treating eczema with a combination of isotonic saline ocean® and nasal mast cell stabilizers” (priority 2002, dated 2003).

Where a name gives a salt, the structure may show the parent alone.

This experiment in a line: Topical application of cromolyn sodium in OCEAN at the affected site in twenty adult subjects with atopic eczema. The format is in vivo, human. The conditions noted are these: 300 mg/45 ml OCEAN (0.67%), applied every 4 to 6 hours at the affected site, after two weeks. On the procedure:
A group of twenty adult subjects suffering from atopic eczema were asked to apply cromolyn sodium (at a concentration of 300 mg/45 ml OCEAN® giving a concentration of 0.67%) every 4 to 6 hours at the affected site, and instructed to rub the solution gently into the lesion.

Regarding `O=C(O)c1cc(=O)c2c(OCC(O)COc3cccc4oc(C(=O)O)cc(=O)c34)cccc2o1` [cromolyn sodium, disodium salt of 1,3-bis-(2-carboxy-chromone-5″yloxy)2-hydroxy propane], the “subjects who experienced relief from the symptoms” value is on record as 19 of the 20.
